Results from ChEMBL document CHEMBL1201862, “PubChem BioAssay data set” (2004).
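Five compound concentrations were applied to cells in 96-well plates for 48 hours; endpoints were derived by simple linear interpolation of the resulting dose-response curve. GI50 marks 50% less growth.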 Calls of active or inactive are those of the source. No stated cut-off is given here; in the data, active = GI50 up to about 1.1 µM and inactive = higher.

Legend:
Assay in all cases: DTP human tumour cell line panel, 48 h
MDA-MB-231 = test system: MDA-MB-231
OVCAR-8 = test system: OVCAR-8
SW-620 = test system: SW-620
MOLT-4 = test system: MOLT-4
HT-29 = test system: HT-29
BT-549 = test system: BT-549
SK-MEL-2 = test system: SK-MEL-2
NCI-H460 = test system: NCI-H460
SK-MEL-28 = test system: SK-MEL-28
MCF7 = test system: MCF7
HCT-116 = test system: HCT-116
UO-31 = test system: UO-31
OVCAR-5 = test system: OVCAR-5
A498 = test system: A498
SK-MEL-5 = test system: SK-MEL-5
MDA-MB-435 = test system: MDA-MB-435
COLO 205 = test system: COLO 205
HL-60 = test system: HL-60
SF-539 = test system: SF-539
SK-OV-3 = test system: SK-OV-3

Row | SMILES | GI50 (MDA-MB-231) | GI50 (OVCAR-8) | GI50 (SW-620) | GI50 (MOLT-4) | GI50 (HT-29) | GI50 (BT-549) | GI50 (SK-MEL-2) | GI50 (NCI-H460) | GI50 (SK-MEL-28) | GI50 (MCF7) | GI50 (HCT-116) | GI50 (UO-31) | GI50 (OVCAR-5) | GI50 (A498) | GI50 (SK-MEL-5) | GI50 (MDA-MB-435) | GI50 (COLO 205) | GI50 (HL-60) | GI50 (SF-539) | GI50 (SK-OV-3)
1 | O=[As](O)(O)c1ccc2nc3cc([As](=O)(O)O)ccc3nc2c1 | > 100 µM (inactive) | > 100 µM (inactive) | > 100 µM (inactive) | > 100 µM (inactive) | > 100 µM (inactive) | > 100 µM (inactive) | > 100 µM (inactive) | > 100 µM (inactive) | > 100 µM (inactive) | > 100 µM (inactive) | > 100 µM (inactive) | > 100 µM (inactive) | > 100 µM (inactive) | > 100 µM (inactive) | > 100 µM (inactive) | > 100 µM (inactive) | – | – | – | –
2 | CCOC(=O)c1cc2cc([N+](=O)[O-])ccc2oc1=O | > 100 µM (inactive) | > 100 µM (inactive) | > 100 µM (inactive) | > 100 µM (inactive) | > 100 µM (inactive) | > 100 µM (inactive) | > 10 µM (inactive) | 69.5 µM (inactive) | > 100 µM (inactive) | 62.1 µM (inactive) | 93.3 µM (inactive) | 35.6 µM (inactive) | > 100 µM (inactive) | > 100 µM (inactive) | > 100 µM (inactive) | > 100 µM (inactive) | > 100 µM (inactive) | 99.5 µM (inactive) | > 100 µM (inactive) | –
3 | COc1cccc([C@H]2CC(=O)c3cc4c(cc3N2)OCO4)c1 | 0.424 µM (active) | 0.401 µM (active) | 0.428 µM (active) | 0.938 µM (active) | 0.194 µM (active) | 8.59 µM (inactive) | 0.578 µM (active) | 0.411 µM (active) | 4.82 µM (inactive) | 0.552 µM (active) | 0.352 µM (active) | 0.485 µM (active) | 0.441 µM (active) | 0.75 µM (active) | 0.216 µM (active) | 0.0743 µM (active) | 0.296 µM (active) | – | 0.274 µM (active) | 0.419 µM (active)
4 | C/C(=C\COP(=O)(O)OP(=O)(O)O)CC/C=C(\C)CNc1ccccc1 | > 50 µM (inactive) | > 50 µM (inactive) | > 50 µM (inactive) | 20.1 µM (inactive) | > 50 µM (inactive) | 9.16 µM (inactive) | > 50 µM (inactive) | > 50 µM (inactive) | > 50 µM (inactive) | > 50 µM (inactive) | > 50 µM (inactive) | > 50 µM (inactive) | > 50 µM (inactive) | – | 26.9 µM (inactive) | > 50 µM (inactive) | > 50 µM (inactive) | 1.05 µM (active) | > 50 µM (inactive) | > 50 µM (inactive)
5 | Nc1ncnc2c1ncc(=O)n2C1CC(O)C(CO)O1 (stereo not given) | > 100 µM (inactive) | > 100 µM (inactive) | > 100 µM (inactive) | > 100 µM (inactive) | > 100 µM (inactive) | > 100 µM (inactive) | > 100 µM (inactive) | > 100 µM (inactive) | > 100 µM (inactive) | > 100 µM (inactive) | > 100 µM (inactive) | > 100 µM (inactive) | > 100 µM (inactive) | > 100 µM (inactive) | > 100 µM (inactive) | > 100 µM (inactive) | > 100 µM (inactive) | – | > 100 µM (inactive) | > 100 µM (inactive)
6 | COC(=O)/C=C1/OC(c2ccccc2)=C(C)C1=O | 4.86 µM (inactive) | 6.08 µM (inactive) | 2.4 µM (inactive) | 3.28 µM (inactive) | 1.98 µM (inactive) | 2.86 µM (inactive) | – | 20 µM (inactive) | 16.8 µM (inactive) | 3.81 µM (inactive) | 4.18 µM (inactive) | 13.8 µM (inactive) | 16 µM (inactive) | 18.7 µM (inactive) | 13.6 µM (inactive) | 13.9 µM (inactive) | 17.5 µM (inactive) | 1.97 µM (inactive) | 17.4 µM (inactive) | 10.7 µM (inactive)
7 | CCOC(=O)CCC(NC(=O)c1ccc(NCc2ccc3nc(-c4ccccc4)c(Cl)nc3c2)c2ccccc12)C(=O)OCC (stereo not given) | > 100 µM (inactive) | > 100 µM (inactive) | > 100 µM (inactive) | 0.977 µM (active) | > 100 µM (inactive) | > 100 µM (inactive) | 72.9 µM (inactive) | > 100 µM (inactive) | > 100 µM (inactive) | 43.5 µM (inactive) | > 100 µM (inactive) | > 100 µM (inactive) | > 100 µM (inactive) | > 100 µM (inactive) | 9.14 µM (inactive) | > 100 µM (inactive) | > 100 µM (inactive) | – | > 100 µM (inactive) | > 100 µM (inactive)
